Structures can show the parent of a compound that is named as a salt.
Legend:
SMYD3 [1] = target: T1, SMYD3 (Homo sapiens (Human), UniProt Q9H7B4); test: SMYD3 biochemical assay (SMYD3 enzyme assay on MEKK2 protein substrate, 3H-SAM scintillation proximity assay); conditions: read-out: SMYD3 Biochem IC50
Method in brief: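 Native full-length human SMYD3, expressed in E. coli, was preincubated with compound for 30 min at room temperature in 25 mM Tris-Cl pH 8.0, 1 mM TCEP, 0.005% BSG and 0.005% Tween 20. ³H-SAM plus GST-MEKK2 then started the reaction. It was stopped with unlabeled SAM (100 uM final), and methylated MEKK2 was read by SPA.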

SMYD3 [2] = target: T1, SMYD3; test: SMYD3 cell assay (Trimethyl-MEKK2 In-Cell Western in 293T/17 cells transfected with MEKK2-flag and SMYD3); type: cell-based
Source text: Trimethyl-MEKK2-in-Cell Western Assay
MEM/Glutamax medium, Optimem Reduced Serum medium, penicillin-streptomycin, 0.05% trypsin and 1×D-PBS were purchased from Life Technologies, Grand Island, N.Y., USA. PBS-10× was purchased from Ambion, Life Technologies, Grand Island, N.Y., USA. PBS with Tween 20 (PBST (10×)) was purchased from KPL, Gaithersburg, Md., USA. Tet System FBS-approved FBS US Source was purchased from Clontech, Mountain View, Calif., USA. Odyssey blocking buffer, 800CW goat anti-rabbit IgG (H+L) antibody, 680CW Goat anti-mouse IgG (H+L) and Licor Odyssey infrared scanner were purchased from Licor Biosciences, Lincoln, Nebr., USA. Tri-methyl-Lysine [A260]-MEKK2 antibody, MEKK2 and SMYD3 plasmids were made at Epizyme. Anti-flag monoclonal mouse antibody was purchased from Sigma, St. Louis, Mo., USA. Methanol was purchased from VWR, Franklin, Mass., USA. 10% Tween 20 was purchased from KPL, Inc., Gaithersburg, Md., USA. Fugene was purchased from Promega, Madison, Wis., USA. The Biotek ELx405 was purchased from BioTek, Winooski, Vt., USA. The multidrop combi was purchased from Thermo Scientific, Waltham, Mass., USA.
Cell Treatment, in Cell Western (ICW) for Detection of Trimethyl-Lysine-MEKK2 and MEKK2.
Plasmids were prepared for delivery to cells by first mixing 1350 μL Opti-MEM with Fugene (81 μL) in a sterile Eppendorf and incubated for five minutes at room temperature (RT). […] Entire volume of Opti-MEM/Fugene mixture was then added to a microfuge tube containing DNA plasmid, mixed and then incubated ×15 minutes at RT. […] Medium was then removed, and cells were washed once with PBS in the flask. Trypsin 0.05% (3 mL) was added and cells incubated for three minutes. Room temperature MEM+10% Tet system FBS was added and cells were mixed gently, and counted using the Vi-cell. Cells were seeded at 100,000 cells/mL in 50 μL MEM/10% Tet FBS/Pen/Strep to a 384 well black/clear poly-D-lysine coated plate containing test agent diluted in DMSO. The final top concentration of test compound was 40 μM. […] Plates were incubated ×30 minutes at RT in low-airflow area, followed by incubation at 37° C. under 5% CO2 for 24 hours. Medium was aspirated from all wells of assay plates prior to fixation and permeabilization with ice cold (−20° C.) methanol (90 μL/well) for ten minutes. Plates were rinsed with PBS three times on BioTek ELx405. PBS was removed with a final aspiration, and Odyssey blocking buffer (50 μL/well) was added to each well and incubated for one hour at RT. Primary antibody solution was prepared (anti-trimethyl-MEKK2 at 1:600 dilution plus mouse anti-flag antibody at 1:10,000 dilution in diluent (Odyssey Blocking buffer+0.1% Tween 20)) and 20 μL per well was dispensed using the Multidrop Combi. Assay plates were then sealed with foil, and incubated overnight at 4° C. Plates were washed five times with PBS-Tween (1×) on Biotek ELx405 and blotted on paper towel to remove excess reagent.
First, the ratio for each well was determined by:
Each plate included fourteen control wells of DMSO only treatment (Minimum Inhibition) as well as fourteen control wells for maximum inhibition (Background). The average of the ratio values for each control type was calculated and used to determine the percent inhibition for each test well in the plate. Reference compound was serially diluted two-fold in DMSO for a total of nine test concentrations, beginning at 40 μM. Percent inhibition was calculated (below).
Non-linear regression curves were generated to calculate the IC50 and dose-response relationship using triplicate wells per concentration of compound.

[3] = Table 3A, average of n = 1 to n = 50
[4] = Table 3A, average of n = 1 to n = 50, read-out: SMYD3 cell IC50

T1 sequence (Q9H7B4 whole entry): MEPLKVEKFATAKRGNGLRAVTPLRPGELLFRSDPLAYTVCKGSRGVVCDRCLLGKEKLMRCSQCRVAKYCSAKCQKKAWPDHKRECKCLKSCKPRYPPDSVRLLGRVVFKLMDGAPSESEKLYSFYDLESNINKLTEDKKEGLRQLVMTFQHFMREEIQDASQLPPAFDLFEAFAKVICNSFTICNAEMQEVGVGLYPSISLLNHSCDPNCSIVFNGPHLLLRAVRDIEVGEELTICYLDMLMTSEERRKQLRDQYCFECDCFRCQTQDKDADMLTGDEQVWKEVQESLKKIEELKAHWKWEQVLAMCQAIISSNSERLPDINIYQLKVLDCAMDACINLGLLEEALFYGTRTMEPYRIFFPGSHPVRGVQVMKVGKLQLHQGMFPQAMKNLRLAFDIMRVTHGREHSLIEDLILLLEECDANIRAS

| SMILES | IC50 (SMYD3 [1]; [3]) [nM] | IC50 (SMYD3 [2]; [4]) [nM] | IC50 (SMYD3 [1]) [nM] | IC50 (SMYD3 [2]; read-out: SMYD3 Cell IC50) [nM] |
| --- | --- | --- | --- | --- |
| O=C1Cc2cc(C(=O)N[C@H]3C[C@H]4CC[C@@H](C3)N4S(=O)(=O)N3CCC(NCc4ccccc4)CC3)ccc2N1 [Cpd. No. 587, N-[(1R,3r,5S)-8-[4-(benzylamino)piperidine-1-sulfonyl]-8-azabicyclo[3.2.1]octan-3-yl]-2-oxo-2,3-dihydro-1H-indole-5-carboxamide] | 1.98 | 71 |  |  |
| O=C1Cc2cc(C(=O)N[C@H]3C[C@H]4CC[C@@H](C3)N4S(=O)(=O)CC3CCN(CCCC(F)(F)F)CC3)c(Cl)cc2N1 [Cpd. No. 595, 6-chloro-2-oxo-N-((1S,3r,5R)-8-((1-(4,4,4-trifluorobutyl)piperidin-4-yl)methylsulfonyl)-8-aza-bicyclo[3.2.1]octan-3-yl)indoline-5-carboxamide] | 3.54 | 36.1 |  |  |
| O=C(N[C@H]1C[C@H]2CC[C@@H](C1)N2S(=O)(=O)CC1CCNCC1)c1ccc2[nH]c(=O)oc2c1 [Cpd. No. 601, 2-oxo-N-((1R,3r,5SR)-8-(piperidin-4-ylmethylsulfonyl)-8-aza-bicyclo[3.2.1]octan-3-yl)-2,3-dihydrobenzo[d]oxazole-6-carboxamide Hydrochloride] | 5.21 | 4540 |  |  |
| CCc1cc(C(=O)N[C@H]2C[C@H]3CC[C@@H](C2)N3S(=O)(=O)N2CCC(N)CC2)ns1 [Cpd. No. 610, N-[(1R,3r,5S)-8-(4-aminopiperidine-1-sulfonyl)-8-azabicyclo[3.2.1]octan-3-yl]-5-ethyl-1,2-thiazole-3-carboxamide Hydrochloride] | 23.8 | 216 |  |  |
| NC1CCC(S(=O)(=O)N2[C@@H]3CC[C@H]2C[C@@H](NC(=O)c2ccc4c(c2)OC(F)(F)O4)C3)CC1 (stereo partly drawn) [Cpd. No. 622, N-((1R,3r,5S)-8-(4-aminocyclohexylsulfonyl)-8-aza-bicyclo[3.2.1]octan-3-yl)-2,2-difluorobenzo[d][1,3]dioxole-5-carboxamide Trifluoroacetate] | 131 | 1080 |  |  |
| C[C@H]1Oc2ccc(C(=O)N[C@H]3C[C@H]4CC[C@@H](C3)N4S(=O)(=O)CC3CCNCC3)cc2NC1=O [Cpd. No. 625, (2R)-2-methyl-3-oxo-N-[(1R,3r,5S)-8-[(piperidin-4-ylmethane)sulfonyl]-8-azabicyclo[3.2.1]octan-3-yl]-3,4-dihydro-2H-1,4-benzoxazine-6-carboxamide Hydrochloride] | 185 | ≥ 10000 |  |  |
| C[C@@H](N)CC(=O)N[C@H]1CC[C@H](NC(=O)c2ccc3c(c2)CC(=O)N3)CC1 [compound 453, N-((1r,4r)-4-((R)-3-aminobutanamido)cyclohexyl)-2-oxoindoline-5-carboxamide] |  |  | 260 | > 40000 |
| NCCC(=O)N[C@H]1CC[C@H](NC(=O)c2cc3c(cc2Cl)NC(=O)C3)CC1 [compound 491, N-((1r,4r)-4-(3-aminopropanamido)cyclohexyl)-6-chloro-2-oxoindoline-5-carboxamide] |  |  | 150 | > 40000 |
| N[C@H]1CC[C@H](S(=O)(=O)N2[C@@H]3CC[C@H]2C[C@@H](NC(=O)c2ccc4c(c2)CC(=O)N4)C3)CC1 [compound 575, N-((1R,3R,5S)-8-(((1r,4R)-4-aminocyclohexyl)sulfonyl)-8-azabicyclo[3.2.1]octan-3-yl)-2-oxoindoline-5-carboxamide] |  | 2170 | 0.44 |  |
| NC1CCN(S(=O)(=O)N2[C@@H]3CC[C@H]2C[C@@H](NC(=O)c2cc4c(cc2F)NC(=O)C4)C3)CC1 [compound 576, N-((1R,3r,5S)-8-((4-aminopiperidin-1-yl)sulfonyl)-8-azabicyclo[3.2.1]octan-3-yl)-6-fluoro-2-oxoindoline-5-carboxamide] | 0.49 | 525 |  |  |
| CN1CCC(CS(=O)(=O)N2[C@@H]3CC[C@H]2C[C@@H](NC(=O)c2ccc4c(c2)CC(=O)N4)C3)CC1 [compound 577, N-((1R,3r,5S)-8-(((1-methylpiperidin-4-yl)methyl)sulfonyl)-8-azabicyclo[3.2.1]octan-3-yl)-2-oxoindoline-5-carboxamide] |  | 481 | 0.67 |  |
| NC1CCN(S(=O)(=O)N2[C@@H]3CC[C@H]2C[C@@H](NC(=O)c2ccc4c(c2)CC(=O)N4)C3)CC1 [compound 578, N-((1R,3r,5S)-8-((4-aminopiperidin-1-yl)sulfonyl)-8-azabicyclo[3.2.1]octan-3-yl)-2-oxoindoline-5-carboxamide] |  | 854 | 0.68 |  |
| NC1CCN(S(=O)(=O)N2[C@@H]3CC[C@H]2C[C@@H](NC(=O)c2cc4c(cc2Cl)NC(=O)C4)C3)CC1 [compound 579, N-((1R,3r,5S)-8-((4-aminopiperidin-1-yl)sulfonyl)-8-azabicyclo[3.2.1]octan-3-yl)-6-chloro-2-oxoindoline-5-carboxamide] | 0.81 | 1130 |  |  |
| C[C@H]1C[C@@H](NC(=O)c2ccc3c(c2)CC(=O)N3)CCN1S(=O)(=O)N1CCC(N)CC1 [compound 580, N-((2S,4S)-1-((4-aminopiperidin-1-yl)sulfonyl)-2-methylpiperidin-4-yl)-2-oxoindoline-5-carboxamide] | 0.9 | 1640 |  |  |
| O=C1Cc2cc(C(=O)N[C@H]3C[C@H]4CC[C@@H](C3)N4S(=O)(=O)CC3CCN(CCCO)CC3)ccc2N1 [compound 581, N-((1R,3r,5S)-8-(((1-(3-hydroxypropyl)piperidin-4-yl)methyl)sulfonyl)-8-azabicyclo[3.2.1]octan-3-yl)-2-oxoindoline-5-carboxamide] | 0.95 | 1670 |  |  |
| C[C@H]1C[C@@H](NC(=O)c2cc3c(cc2Cl)NC(=O)C3)CCN1S(=O)(=O)N1CCC(N)CC1 [compound 582, N-((2S,4S)-1-((4-aminopiperidin-1-yl)sulfonyl)-2-methylpiperidin-4-yl)-6-chloro-2-oxoindoline-5-carboxamide] | 0.98 | 814 |  |  |
| N[C@H]1CC[C@H](S(=O)(=O)N2[C@@H]3CC[C@H]2C[C@@H](NC(=O)c2cc4c(cc2Cl)NC(=O)C4)C3)CC1 [compound 583, N-((1R,3R,5S)-8-(((1r,4R)-4-aminocyclohexyl)sulfonyl)-8-azabicyclo[3.2.1]octan-3-yl)-6-chloro-2-oxoindoline-5-carboxamide] | 1.1 | 1510 |  |  |
| C[C@H]1CC(NC(=O)c2ccc3c(c2)CC(=O)N3)CCN1S(=O)(=O)c1ccc(C(C)(C)N)cc1 (stereo partly drawn) [compound 584, N-((2S)-1-((4-(2-aminopropan-2-yl)phenyl)sulfonyl)-2-methylpiperidin-4-yl)-2-oxoindoline-5-carboxamide] | 1.47 | 653 |  |  |
| O=C1Cc2cc(C(=O)N[C@H]3C[C@H]4CC[C@@H](C3)N4S(=O)(=O)CC3CCN(CCCO)CC3)c(Cl)cc2N1 [compound 585, 6-chloro-N-((1R,3r,5S)-8-(((1-(3-hydroxypropyl)piperidin-4-yl)methyl)sulfonyl)-8-azabicyclo[3.2.1]octan-3-yl)-2-oxoindoline-5-carboxamide] | 1.73 | 764 |  |  |
| CNC1CCN(S(=O)(=O)N2[C@@H]3CC[C@H]2C[C@@H](NC(=O)c2cc4c(cc2Cl)NC(=O)C4)C3)CC1 [compound 586, 6-chloro-N-((1R,3r,5S)-8-((4-(methylamino)piperidin-1-yl)sulfonyl)-8-azabicyclo[3.2.1]octan-3-yl)-2-oxoindoline-5-carboxamide] | 1.89 | 425 |  |  |
